Laboratory results reported in the supplement of paper PMC10307832.

Legend:
Assay in all cases: relative viability (nuclei count vs DMSO), 5 days (fraction); higher = more cells survive
[1] = compound: C[C@@H](N)c1ccc(C(=O)Nc2ccnc3[nH]ccc23)cc1 + Cc1nc(Nc2ncc(C(=O)Nc3c(C)cccc3Cl)s2)cc(N2CCN(CCO)CC2)n1 [Dasatinib] (partner 0.075 µM)
Summary of the method: (§1)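 For relative viability, nuclei counts in treated wells were divided by those in vehicle wells. Lung cancer cell lines had been pin-tool dosed in 1536-well plates the day after seeding and cultured for 5 days, then fixed and stained in one step (final 0.05% Triton X-100, 1% formaldehyde, 1 ug/ml Hoechst) and imaged at 4×. Doses were one drug alone or a fixed anchor-drug dose plus five library-drug doses (not always all listed) in √10 steps, and values are duplicate-plate medians.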

[2] = compound: C1CNCCC1C2=CC(=NN2)C3=CC=NC=C3 + Cc1nc(Nc2ncc(C(=O)Nc3c(C)cccc3Cl)s2)cc(N2CCN(CCO)CC2)n1 [Dasatinib] (partner 0.075 µM)
Summary of the method: as §1

Tanzisertib + Phenformin = compound: O[C@H]1CC[C@H](Nc2ncc3nc(Nc4c(F)cc(F)cc4F)n([C@H]4CCOC4)c3n2)CC1 [Tanzisertib] + N=C(N)NC(=N)NCCc1ccccc1 [Phenformin] (partner 250 µM)
Summary of the method: as §1

Tanzisertib + Lapatinib = compound: O[C@H]1CC[C@H](Nc2ncc3nc(Nc4c(F)cc(F)cc4F)n([C@H]4CCOC4)c3n2)CC1 [Tanzisertib] + CS(=O)(=O)CCNCc1ccc(-c2ccc3ncnc(Nc4ccc(OCc5cccc(F)c5)c(Cl)c4)c3c2)o1 [Lapatinib] (partner 2 µM)
Summary of the method: as §1

Cell Line | relative viability ([1]; first compound 0.04 µM) | relative viability ([1]; first compound 0.1265 µM) | relative viability ([1]; first compound 0.4 µM) | relative viability ([1]; first compound 1.265 µM) | relative viability ([1]; first compound 4 µM) | relative viability ([2]; first compound 0.08 µM) | relative viability ([2]; first compound 0.8 µM) | relative viability ([2]; first compound 2.53 µM) | relative viability ([2]; first compound 8 µM) | relative viability (Tanzisertib + Phenformin; first compound 0.08 µM) | relative viability (Tanzisertib + Phenformin; first compound 0.253 µM) | relative viability (Tanzisertib + Phenformin; first compound 0.8 µM) | relative viability (Tanzisertib + Phenformin; first compound 2.53 µM) | relative viability (Tanzisertib + Phenformin; first compound 8 µM) | relative viability (Tanzisertib + Lapatinib; first compound 0.08 µM) | relative viability (Tanzisertib + Lapatinib; first compound 0.253 µM) | relative viability (Tanzisertib + Lapatinib; first compound 0.8 µM) | relative viability (Tanzisertib + Lapatinib; first compound 2.53 µM) | relative viability (Tanzisertib + Lapatinib; first compound 8 µM)
NCI-H1355 | 0.516 | 0.738 | 0.764 | 0.671 | 0.427 | 0.651 | 0.718 | 0.798 | 0.695 | 0.517 | 0.44 | 0.503 | 0.472 | 0.431 | 1.02 | 1.03 | 1.05 | 1.06 | 1.05
EKVX | 0.624 | 0.533 | 0.561 | 0.248 | 0.455 | 0.576 | 0.565 | 0.645 | 0.525 | 0.227 | 0.244 | 0.253 | 0.227 | 0.205 | 0.161 | 0.186 | 0.208 | 0.394 | 0.197
NCI-H441 | 0.671 | 0.739 | 0.867 | – | 0.667 | 0.465 | 0.673 | 0.797 | 0.576 | 1.12 | 0.723 | 0.725 | 0.853 | 0.817 | – | – | – | – | –
NCI-H1975 | 0.408 | 0.459 | 0.363 | 0.369 | 0.262 | 0.405 | 0.417 | 0.492 | 0.413 | 0.419 | 0.404 | 0.409 | 0.424 | 0.441 | 1.06 | 0.944 | 0.87 | 0.942 | 0.912
HCC-78 | 0.556 | 0.376 | 0.51 | 0.388 | 0.614 | 0.352 | 0.257 | 0.356 | 0.369 | 0.739 | 0.848 | 0.782 | 0.597 | 0.512 | 0.72 | 0.7 | 0.827 | 0.786 | 0.303
NCI-H2085 | 0.294 | 0.322 | 0.421 | 0.33 | 0.391 | 0.244 | – | 0.296 | 0.215 | 0.739 | 0.724 | 0.81 | 0.715 | 0.461 | 0.794 | 0.726 | 0.818 | 0.83 | 0.755
H3255 | 0.344 | 0.432 | 0.519 | 0.331 | 0.4 | 0.352 | 0.378 | 0.369 | 0.488 | 0.413 | 0.371 | 0.387 | 0.349 | 0.231 | 0.231 | 0.29 | 0.256 | 0.256 | 0.205
NCI-H2087 | 0.956 | 0.912 | 0.869 | – | 0.65 | 0.662 | 1.02 | 0.75 | 0.84 | 0.464 | 0.502 | 0.463 | 0.447 | 0.322 | 1.19 | 1.08 | 1.2 | 1.07 | 0.974
LC-2-ad | 0.717 | 0.639 | 0.814 | – | 0.389 | – | 0.647 | 0.761 | 0.739 | 0.648 | 0.58 | 0.638 | 0.651 | 0.433 | 0.991 | 0.978 | 1.1 | 0.989 | 0.868
PC-3 [JPC-3] | 0.951 | 1 | 1.02 | 0.901 | 0.82 | 0.982 | 1.1 | 1.01 | 0.966 | 0.488 | 0.492 | 0.509 | 0.494 | 0.461 | 0.466 | 0.406 | 0.494 | 0.422 | 0.494
EBC-1 | – | – | – | – | – | – | – | – | – | – | – | – | – | – | 0.216 | 0.213 | 0.204 | 0.189 | 0.178
HCC-15 | 0.633 | 0.574 | 0.603 | – | 0.442 | 0.556 | 0.646 | 0.639 | 0.609 | 0.576 | 0.487 | 0.509 | 0.467 | 0.423 | 0.974 | 0.854 | 0.888 | 0.916 | 0.659
NCI-H1563 | 0.49 | 0.462 | 0.486 | 0.377 | 0.465 | 0.451 | 0.465 | 0.486 | 0.485 | 0.662 | 0.688 | 0.654 | 0.681 | 0.624 | 0.973 | 0.947 | 0.967 | 1.06 | 1.01
COR-L 105 | 0.247 | 0.317 | 0.372 | 0.241 | 0.216 | 0.332 | 0.364 | 0.382 | 0.368 | 0.467 | 0.465 | 0.449 | 0.473 | 0.327 | 0.379 | 0.355 | 0.353 | 0.332 | 0.275
NCI-H520 | 0.212 | 0.205 | 0.181 | 0.219 | 0.196 | 0.17 | 0.163 | 0.187 | 0.206 | 0.734 | 0.662 | 0.599 | 0.609 | 0.663 | 0.834 | 0.804 | 0.827 | 0.789 | 0.819
LU99A | – | 0.507 | 0.536 | 0.495 | 0.508 | 0.522 | 0.744 | 0.836 | 0.645 | 0.971 | 0.82 | 0.884 | 0.813 | 0.786 | 1.1 | 0.934 | 0.934 | 1.11 | 1.2
NCI-H1666 | 0.727 | 0.803 | 0.822 | 0.722 | 0.625 | 0.718 | 0.941 | 0.821 | 0.783 | 0.595 | 0.602 | 0.56 | 0.607 | 0.59 | 0.669 | 0.67 | 0.901 | 0.622 | 0.725
NCI-H2170 | 0.774 | 0.595 | 0.639 | 0.518 | 0.528 | 0.536 | 0.52 | 0.574 | 0.643 | 0.406 | 0.451 | 0.457 | 0.411 | 0.392 | 0.285 | 0.252 | 0.26 | 0.262 | 0.253
